Tests used:
Assay in all cases: relative viability (nuclei count vs DMSO), 5 days (fraction); higher = more cells survive
SGI-1776 + Palbociclib = compound: CN1CCC(CNc2ccc3ncc(-c4cccc(OC(F)(F)F)c4)n3n2)CC1 [SGI-1776] + CC(=O)c1c(C)c2cnc(Nc3ccc(N4CCNCC4)cn3)nc2n(C2CCCC2)c1=O [Palbociclib] (partner 0.5 µM)
Summary of the method: (§1)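 Relative viability was taken as the ratio of nuclei in treated wells to nuclei in vehicle wells. Lung cancer cell lines in 1536-well plates received compounds by pin tool one day after seeding, either one drug alone or a fixed anchor-drug dose plus five library-drug doses (not always all listed) in √10 steps. Nuclei were counted on 4× images after 5 days of treatment, and values are medians of duplicate plates.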

Entinostat + Palbociclib = compound: Nc1ccccc1NC(=O)c1ccc(CNC(=O)OCc2cccnc2)cc1 [Entinostat] + CC(=O)c1c(C)c2cnc(Nc3ccc(N4CCNCC4)cn3)nc2n(C2CCCC2)c1=O [Palbociclib] (partner 0.5 µM)
Summary of the method: as §1

[1] = compound: C1COCCN1C2=NC(=NC3=C2OC4=C3C=CC=N4)C5=CC(=CC=C5)NC(=O)C6=CN=C(C=C6)N + CC1(C)CCC(c2ccc(Cl)cc2)=C(CN2CCN(c3ccc(C(=O)NS(=O)(=O)c4ccc(N[C@H](CCN5CCOCC5)CSc5ccccc5)c(S(=O)(=O)C(F)(F)F)c4)cc3)CC2)C1 [Navitoclax] (partner 0.5 µM)
Summary of the method: as §1

[2] = compound: C1COCCN1C2=NC(=NC3=C2OC4=C3C=CC=N4)C5=CC(=CC=C5)NC(=O)C6=CN=C(C=C6)N + NC(=O)Nc1cc(-c2cccc(F)c2)sc1C(=O)N[C@H]1CCCNC1 [AZD7762] (partner 0.2 µM)
Summary of the method: as §1

Cell Line | relative viability (SGI-1776 + Palbociclib; first compound 0.08 µM) | relative viability (SGI-1776 + Palbociclib; first compound 0.8 µM) | relative viability (SGI-1776 + Palbociclib; first compound 2.53 µM) | relative viability (SGI-1776 + Palbociclib; first compound 8 µM) | relative viability (Entinostat + Palbociclib; first compound 0.02 µM) | relative viability (Entinostat + Palbociclib; first compound 0.06325 µM) | relative viability (Entinostat + Palbociclib; first compound 0.2 µM) | relative viability (Entinostat + Palbociclib; first compound 0.6325 µM) | relative viability (Entinostat + Palbociclib; first compound 2 µM) | relative viability ([1]; first compound 0.02 µM) | relative viability ([1]; first compound 0.06325 µM) | relative viability ([1]; first compound 0.2 µM) | relative viability ([1]; first compound 0.6325 µM) | relative viability ([1]; first compound 2 µM) | relative viability ([2]; first compound 0.02 µM) | relative viability ([2]; first compound 0.06325 µM) | relative viability ([2]; first compound 0.2 µM) | relative viability ([2]; first compound 0.6325 µM) | relative viability ([2]; first compound 2 µM)
NCI-H2126 | 0.389 | 0.334 | 0.361 | 0.331 | 0.316 | 0.317 | 0.351 | 0.321 | 0.334 | 0.872 | 0.828 | 0.9 | 0.839 | 0.763 | 0.989 | 1.03 | 1.03 | 0.989 | 0.736
NCI-H727 | 0.583 | 0.679 | 0.693 | 0.51 | 0.596 | 0.702 | 0.628 | 0.657 | 0.649 | 0.351 | 0.501 | 0.343 | 0.357 | 0.337 | 0.528 | 0.678 | 0.812 | 0.602 | 0.755
EMC-BAC-2 | 0.537 | 0.52 | 0.518 | 0.514 | 0.532 | 0.468 | 0.443 | 0.388 | 0.294 | 1.21 | 1.28 | 1.26 | 1.12 | 0.984 | 1.2 | 1.11 | 1.14 | 1.01 | 1.01
NCI-H1437 | 0.311 | 0.315 | 0.257 | 0.261 | 0.236 | 0.182 | 0.204 | 0.178 | 0.122 | 1.15 | 1.16 | 1.04 | 1.08 | 0.563 | 1.1 | 1.07 | 1.12 | 1.13 | 0.91
NCI-H2347 | 0.414 | 0.455 | 0.44 | 0.426 | 0.48 | 0.387 | 0.361 | 0.339 | 0.261 | 0.854 | 0.895 | 0.815 | 0.747 | 0.528 | 0.768 | 0.787 | 0.683 | 0.666 | 0.618
NCI-H1666 | 0.64 | 0.66 | 0.614 | 0.663 | 0.672 | 0.684 | 0.697 | 0.65 | 0.565 | 0.856 | 0.96 | 0.722 | 0.687 | 0.573 | 0.91 | 0.827 | 0.861 | 0.757 | 0.811
NCI-H1993 | 0.466 | 0.662 | 0.526 | 0.504 | 0.653 | 0.667 | 0.725 | 0.642 | 0.273 | 0.819 | 1.06 | 0.822 | 0.874 | 0.763 | 1.02 | 0.668 | 0.747 | 0.759 | 0.443
HCC-44 | 0.976 | 0.995 | 0.953 | 0.919 | 1.01 | 0.833 | 0.903 | 0.84 | 0.826 | 1.08 | 1.15 | 1.08 | 1 | 0.571 | 0.907 | 1.05 | 1.04 | 0.991 | 1.14
LU99A | 0.415 | 0.441 | 0.407 | 0.381 | 0.419 | 0.416 | 0.376 | 0.388 | 0.302 | 0.779 | 0.842 | 0.786 | 0.587 | 0.277 | 0.433 | 0.416 | 0.233 | 0.319 | 0.295
NCI-H460 | 0.243 | 0.133 | 0.121 | 0.151 | 0.112 | 0.0634 | 0.0456 | 0.0231 | 0.0171 | 1.38 | 1.47 | 1.19 | 0.957 | 0.0442 | 0.609 | 0.784 | 0.587 | 0.653 | 0.359
NCI-H1975 | 0.684 | 0.563 | 0.568 | 0.526 | 0.488 | 0.378 | 0.346 | 0.181 | 0.132 | 1.31 | 1.17 | 1.05 | 1.13 | 0.422 | 0.72 | 0.67 | 0.608 | 0.557 | 0.51
NCI-H1355 | 0.419 | 0.433 | 0.413 | 0.345 | 0.416 | 0.417 | 0.332 | 0.328 | 0.25 | 0.924 | 1.08 | 0.909 | 0.841 | 0.9 | 0.875 | 0.765 | 0.713 | 0.66 | 0.539
NCI-H1755 | 0.461 | 0.444 | 0.438 | 0.438 | 0.439 | 0.454 | 0.446 | 0.407 | 0.342 | 0.987 | 1.13 | 1.05 | 0.861 | 0.561 | 0.45 | 0.4 | 0.397 | 0.414 | 0.348
LK-2 | 0.513 | 0.735 | 0.647 | 0.534 | 0.77 | 0.673 | 0.651 | 0.496 | 0.211 | 0.953 | 0.845 | 0.869 | 0.714 | 0.54 | 0.427 | 0.406 | 0.378 | 0.416 | 0.221
HCC-78 | 0.481 | 0.428 | 0.446 | 0.458 | 0.523 | 0.462 | 0.491 | 0.468 | 0.531 | 0.709 | 0.728 | 0.906 | 0.769 | 0.645 | 0.628 | 0.642 | 0.576 | 0.685 | 0.589
NCI-H3122 | 0.206 | 0.2 | 0.173 | 0.165 | 0.191 | 0.217 | 0.208 | 0.181 | 0.187 | 0.975 | 1.05 | 1.03 | 1.02 | 0.798 | 0.973 | 1.01 | 0.99 | 0.973 | 0.667

Source: the supplement of paper PMC10307832
